Data from patent US8093395B2 (priority 2007, dated 2012).
Like-named read-outs stand apart in the source and are kept apart here.

Assays:
Test in all cases: biochemical
Format in all cases: biochemical
Settings in all cases: for activity at 1 µM: pH 5.5, read-out: Sphingomyelinase Activity (%)
Bacillus cereus-SMase [1] = target: T1, Bacillus cereus-SMase (Bacillus cereus, UniProt P11889)
Experimental: Experiment 3: Influence of Compound (1a) and Compound (1b) on the ^14C-Sphingomyelin (^14C-Sphingomyelin) Decomposition Activity of Bacillus cereus-SMase
(§1) (i) Solution of Compound (1a)
(§2) Compound (1a) was dissolved in MeOH and adjusted to 1.7 mM and 17 mM.
(§3) (ii) Solution of Compound (1b)
(§4) Compound (1b) was dissolved in MeOH and adjusted to 1.7 mM and 17 mM.
(iii) Preparation of TX-Buffer
0.5 g of Triton X-100 was dissolved in 100 ml of 0.02 M TB.
[Method] 30 ng/ml Bacillus cereus-SMase was mixed with the solution of Compound (1a) with each concentration or the solution of Compound (1b) with each concentration, and the mixture was adjusted with TX-buffer (pH 5.5) to a total volume of 200 μl and pre-treated for 10 minutes at 37° C., after which 10 μl of ^14C-sphingomyelin was added to the reaction mixture, and the resulting mixture was incubated for 30 minutes at 37° C. 600 μl of a solvent to stop the reaction (stop solution; CHCl3:MeOH=1:2) was added to the reaction mixture and the resulting mixture was stirred for 30 seconds twice, and centrifuged for 20 minutes at 2,000 rpm, after which the upper layer was measured using a liquid scintillation counter.

Bacillus cereus-SMase [2] = target: T1, Bacillus cereus-SMase; remark: listed apart in the source
Bacillus cereus-SMase [3] = target: T1, Bacillus cereus-SMase; remark: listed apart in the source
Experimental: Preparation of Sphingomyelin-Liposome (SM-Liposome)
The sphingomyelin (SM), cholesterol, and CF solution used were as follows:
SM: sphingomyelin from bovin brain, code: 32156-74
Cholesterol: Nakarai code: 08721-75
CF solution: 5(6)-carbosyfluorescein; SIGMA C8166, FW=460.4
About 100 μl of 1 N sodium hydroxide (NaOH) was added to CF (27 mg/3 ml, DW) to prepare a CF solution. At this time, NaOH was added to give a pH of 7 to 8 as measured by a pH test paper.
Liposome Preparation Method
59 μl of a solution obtained by dissolving 2 mg of sphingomyelin (SM) in 160 μl of a mixed solvent of chloroform (CHCl3) and methanol (MeOH) (CHCl3:MeOH=2:1) was mixed with 20 μl of a solution obtained by dissolving 19.3 mg of cholesterol in 1 ml of CHCl3; the mixture was homogeneously spread to the bottom of a glass test tube while the CHCl3 and MeOH were distilled under nitrogen, and dried in a desiccator for 30 minutes. The CF solution was warmed to 55° C., and 80 μl of the CF solution was added with stirring to the SM from which the solvent was distilled (the molar ratio of […]: 1:1), and a procedure of placing the mixture in a water bath at 55° C. and stirring the mixture was repeated three times at 30-second intervals. A suitable amount of TBS was added, the mixture was centrifuged for 20 minutes at 15,000 rpm and 4° C., and the supernatant was removed. A suspension of the resulting product in 300 μl of TBS was used as a liposome.
Experiment 2: Influence of Compound (1a) and Compound (1b) on SM-Liposome Degradation Activity of Bacillus cereus-SMase
as §1, §2, §3, §4
[Method] Bc-SMase (50 ng/ml) was mixed with the solution of Compound (1a) with each concentration or the solution of Compound (1b) with each concentration, and the mixture was adjusted with GTBS (pH 5.5) to a total volume of 180 μl and pre-treated for 10 minutes at 37° C., after which 20 μl of the SM-liposome was added to the resulting reaction mixture and incubated for 30 minutes at 37° C. The reaction mixture was measured using a fluorometer (Corona Electric Co., Ltd.; MTP32 Microplate Reader, Ex490, Em530).

T1 sequence (P11889 28-333): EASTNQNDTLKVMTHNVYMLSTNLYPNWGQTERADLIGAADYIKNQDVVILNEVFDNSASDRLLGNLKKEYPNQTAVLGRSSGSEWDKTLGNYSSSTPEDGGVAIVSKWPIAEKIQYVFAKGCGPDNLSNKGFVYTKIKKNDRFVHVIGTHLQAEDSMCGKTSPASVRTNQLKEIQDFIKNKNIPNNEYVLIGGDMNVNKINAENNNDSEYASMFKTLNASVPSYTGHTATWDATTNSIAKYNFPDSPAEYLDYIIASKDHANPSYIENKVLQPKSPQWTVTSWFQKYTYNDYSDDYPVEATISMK

| Structure (SMILES) | sphingomyelinase activity was inhibited by (Table 3) (Bacillus cereus-SMase [1]; 100-μM solution, 14C-sphingomyelin decomposition) | activity at 1 µM (Bacillus cereus-SMase [1]) [%] | sphingomyelinase activity was inhibited by (text summary of Table 1) (Bacillus cereus-SMase [2]; 100-μM solution, sheep erythrocyte hemolysis) | activity at 1 µM (Bacillus cereus-SMase [2]) [%] | inhibition of sphingomyelinase activity (text summary of Table 2) (Bacillus cereus-SMase [3]; 100-μM solution, SM-liposome degradation) | activity at 1 µM (Bacillus cereus-SMase [3]) [%] | inhibitory effect compared with Compound (1a) (Bacillus cereus-SMase [1]; 1 to 100 μM, 14C-sphingomyelin decomposition) | inhibitory effect compared with Compound (1a) (Bacillus cereus-SMase [2]; 1 to 100 μM, sheep erythrocyte hemolysis) | inhibitory effect compared with Compound (1a) (Bacillus cereus-SMase [3]; 1 to 100 μM, SM-liposome degradation) |
| --- | --- | --- | --- | --- | --- | --- | --- | --- | --- |
| CCCCCCCCCCCCC/C=C/[C@@H](O)C(COCc1cccc(-c2ccccn2)n1)NC(=O)CCCCC (stereo partly drawn) [Compound (1a)] | about 25% | 98.6 ± 1.3 | about 30% | 98.2 ± 1.4 | substantially completely inhibited | 99 ± 0.2 |  |  |  |
| CCCCCCCCCCCCC/C=C/[C@@H](OCc1cccc(-c2ccccn2)n1)C(CO)NC(=O)CCCCC (stereo partly drawn) [Compound (1b)] |  | 98.2 ± 2.3 |  | 96.2 ± 2.7 |  | 99.1 ± 0.3 | did not show as potent an inhibitory effect as Compound (1a) | did not show as potent an inhibitory effect as Compound (1a) | did not show as potent an inhibitory effect as Compound (1a) |
